Measurements from US5438056A (priority 1993, dated 1995).
Read-outs that look alike come from different tables or passages of the source.

Columns and labels:
[1] = target: cholesterol ester hydrolase (Homo sapiens, UniProt P19835); test: biochemical
cholesterol absorption = test: animal or person; type: in vivo, normal rat
[2] = Rattus norvegicus, po, 6 h, read-out: % Decrease ^14 C Chol. Absorption at 6 hr in normal rat

Chain of cholesterol ester hydrolase (P19835 21-753): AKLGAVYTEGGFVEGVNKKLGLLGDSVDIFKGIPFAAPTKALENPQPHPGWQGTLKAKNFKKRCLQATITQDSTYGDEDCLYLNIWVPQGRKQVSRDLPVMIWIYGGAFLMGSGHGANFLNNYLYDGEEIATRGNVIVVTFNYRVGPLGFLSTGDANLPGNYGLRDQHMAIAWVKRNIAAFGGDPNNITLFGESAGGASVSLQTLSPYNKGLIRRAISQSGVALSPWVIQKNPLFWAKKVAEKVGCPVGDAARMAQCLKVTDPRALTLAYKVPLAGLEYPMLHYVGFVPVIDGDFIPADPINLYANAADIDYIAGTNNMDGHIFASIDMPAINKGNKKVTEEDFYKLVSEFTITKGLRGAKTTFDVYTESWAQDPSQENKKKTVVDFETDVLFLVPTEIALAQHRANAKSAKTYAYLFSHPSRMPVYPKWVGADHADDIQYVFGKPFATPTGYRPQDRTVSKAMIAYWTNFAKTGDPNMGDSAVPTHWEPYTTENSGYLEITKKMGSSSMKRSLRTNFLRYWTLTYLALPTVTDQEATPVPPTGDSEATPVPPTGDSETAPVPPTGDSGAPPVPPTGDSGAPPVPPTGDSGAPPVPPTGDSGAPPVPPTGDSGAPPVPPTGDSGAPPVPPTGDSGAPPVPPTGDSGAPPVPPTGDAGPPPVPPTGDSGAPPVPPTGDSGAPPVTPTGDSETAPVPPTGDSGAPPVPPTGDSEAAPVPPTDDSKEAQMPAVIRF

Work on CCCCCCCCNC(=O)ON=C(C1=CC(=O)C(C)(C)O1)c1ccccc1 [Example 1, 2,2-Dimethyl-5-[[[[(octylamino)carbonyl]oxy]imino]phenylmethyl]-3(2H)-furanone] yielded an IC50 [1] of 1.9 µM and an inhibition in vivo at 100 mg/kg (cholesterol absorption; [2]) of 39%.

In the case of CCCCCCCCCCCCNC(=O)ON=C(C1=CC(=O)C(C)(C)O1)c1ccccc1 [Example 2, 2,2-Dimethyl-5-[[[[(dodecylamino)carbonyl]oxy]imino]phenylmethyl]-3(2H)-furanone], the IC50 [1] is reported as 0.57 µM and the inhibition in vivo at 100 mg/kg (cholesterol absorption; [2]) is reported as 76%.

With CC1(C)CCC(NC(=O)ON=C(C2=CC(=O)C(C)(C)O2)c2ccccc2)CC1 [Example 3, 2,2-Dimethyl-5-[[[[[(4,4dimethylcyclohexyl)amino]carbonyl]oxy]imino]phenylmethyl]-3(2H)-furanone] the IC50 [1] was 0.1 µM and the inhibition in vivo at 100 mg/kg (cholesterol absorption; [2]) was 44%.

Work on CCCCCCCC/C=C\CCCCCCCCNC(=O)ON=C(C1=CC(=O)C(C)(C)O1)c1ccccc1 [Example 4, 2,2-Dimethyl-5-[[[[[(Z)-9-octadecenylamino]carbonyl]oxy]imino]phenylmethyl]-3(2H)-furanone] yielded an IC50 ([1]; read-out: IC50 against CEH) of 5.4 µM and an inhibition in vivo at 100 mg/kg (cholesterol absorption; [2]) of 74%.

CCCCCCCC/C=C/CCCCCCCCCNC(=O)ON=C(C1=CC(=O)C(C)(C)O1)c1ccccc1 [Example 5, 2,2-Dimethyl-5-[[[[[(E)-10-nonadecenylamino]carbonyl]oxy]imino]phenylmethyl]-3(2H)-furanone] gave an IC50 [1] of 25 µM and an inhibition in vivo at 25 mg/kg (cholesterol absorption; [2]) of 39%.

In the case of CCCCC/C=C/C/C=C/CCCCCCCCNC(=O)ON=C(C1=CC(=O)C(C)(C)O1)c1ccccc1 [Example 6, 2,2-Dimethyl-5-[[[[[(E,E)-9, 12-octadecadienylamino]carbonyl]oxy]imino]phenylmethyl]-3(2H)-furanone], the IC50 [1] is reported as 2.7 µM and the inhibition in vivo at 25 mg/kg (cholesterol absorption; [2]) is reported as 50%.

For CCCCCCCCNC(=O)ON=C(C1=CC(=O)C(C)(C2CCCCC2)O1)c1ccccc1 (centres unmarked) [Example 7, 2-Cyclohexyl-2-methyl-5-[[[[(octylamino)carbonyl]oxy]imino]phenylmethyl]-3(2H)-furanone], the IC50 [1] was 1.9 µM and the inhibition in vivo at 100 mg/kg (cholesterol absorption; [2]) was 47%.

Work on CCCCCCCCNC(=O)ON=C(C1=CC(=O)C(C)(c2ccccc2)O1)c1ccccc1 (centres unmarked) [Example 8] yielded an IC50 [1] of 0.13 µM and an inhibition in vivo at 100 mg/kg (cholesterol absorption; [2]) of 46%.

For CCCCCCCCNC(=O)ON=C(C1=CC(=O)C(C)(c2ccc(Cl)cc2)O1)c1ccccc1 (centres unmarked) [Example 9, 2-(4-Chlorophenyl)-2-methyl-5-[[[[(octylamino)carbonyl]oxy]imino]phenylmethyl]-3(2H)-furanone], the IC50 [1] was 2.64 µM and the inhibition in vivo at 100 mg/kg (cholesterol absorption; [2]) was 62%.

CCCCCCCCNC(=O)ON=C(C1=CC(=O)C(C)(c2ccc(C(C)(C)C)cc2)O1)c1ccccc1 (centres unmarked) [Example 10, 2-[4-(1,1-Dimethylethyl)phenyl]-2-methyl-5-[[[[(octylamino)carbonyl]oxy]imino]phenylmethyl]-3(2H)-furanone] showed an IC50 [1] of 12.7 µM and an inhibition in vivo at 100 mg/kg (cholesterol absorption; [2]) of 46%.

CCCCCCCCNC(=O)ON=C(CCc1ccccc1)C1=CC(=O)C(C)(C)O1 [Example 11] gave an IC50 [1] of 1.5 µM and an inhibition in vivo at 100 mg/kg (cholesterol absorption; [2]) of 57%.

With CCCCCCCCCCCCNC(=O)ON=C(C1=C(Br)C(=O)C(C)(C)O1)c1ccccc1 [Example 12, 2,2-Dimethyl-4-bromo-5-[[[[(dodecylamino)carbonyl]oxy]imino]phenylmethyl]3(2H)-furanone] the IC50 [1] was 2.27 µM and the inhibition in vivo at 100 mg/kg (cholesterol absorption; [2]) was 69%.

Compound CCCCCCCCCCCCNC(=O)ON=C(C1=CC(=O)C(C)(C)O1)c1ccc(Cl)cc1 [Example 13] has an IC50 [1] of 10 µM and an inhibition in vivo at 100 mg/kg (cholesterol absorption; [2]) of 63%.

With O=C(NC1CCCCC1)ON=C(c1ccccc1)c1ccccn1 [Example 14, Phenyl(2-pyridinyl)methanone O-[(cyclohexylamino)carbonyl]oxime] the IC50 [1] was 1.4 µM and the inhibition in vivo at 100 mg/kg (cholesterol absorption; [2]) was 44%.

For CCCCCCCCNC(=O)ON=C(c1ccccn1)c1ccccn1 [Example 16, Di(2-pyridinyl)methanone O-[(octylamino)carbonyl]oxime], the IC50 [1] was 2.77 µM and the inhibition in vivo at 50 mg/kg (cholesterol absorption; [2]) was 39%.

Work on CCCCCCCCNC(=O)ON=C(c1ccc(F)cc1)c1ccccn1 [Example 17, (4-Fluorophenyl)(2-pyridinyl)methanone O-[(octylamino)carbonyl]oxime] yielded an IC50 [1] of 0.44 µM and an inhibition in vivo at 50 mg/kg (cholesterol absorption; [2]) of 57%.

Compound CCCCCCCCNC(=O)ON=C(c1ccc(OC)cc1)c1ccccn1 [Example 18, (4-Methoxyphenyl)(2-pyridinyl)methanone O-[(octylamino)carbonyl]oxime] has an IC50 [1] of 2.1 µM and an inhibition in vivo at 65 mg/kg (cholesterol absorption; [2]) of 45%.

In the case of CCCCNC(=O)ON=C(c1ccc(N(C)C)cc1)c1ccccn1 [Example 20], the “% Decrease ^14 C Chol. Absorption at 6 hr in normal rat” value (cholesterol absorption; rat, in vivo) is reported as 51%.
